# Assay results published in US20220119354A1, “DIAMINO-SUBSTITUTED PYRIDINES AND PYRIMIDINES AS HERBICIDES” (FMC Corporation, priority 2019, published 2022).
# Legend:
# Assay type in all cases: in vivo
# [1] = tested on: wheat (Triticum aestivum); test: Test A postemergence, wheat; conditions: 0 to 100 scale, 0 no effect, 100 complete control
# Summary of the method: (§1)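 Greenhouse pot test, loam/sand soil. Pre: directed soil spray at planting; post: foliar spray at 1–2 leaf stage (2–10 cm). Chemical in non-phytotoxic solvent + surfactant. Visual rating ~10 d, 0 = no effect, 100 = complete control.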
# [2] = tested on: galium (catchweed bedstraw, Galium aparine); test: Test A postemergence, galium; conditions: 0 to 100 scale, 0 no effect, 100 complete control
# Summary of the method: as §1
# [3] = tested on: ragweed (common ragweed, Ambrosia elatior); test: Test A postemergence, ragweed; conditions: 0 to 100 scale, 0 no effect, 100 complete control
# Summary of the method: as §1
# [4] = tested on: foxtail, giant (Setaria faberii); test: Test A preemergence, giant foxtail; conditions: 0 to 100 scale, 0 is no effect, 100 is complete control
# Summary of the method: as §1
# [5] = tested on: ducksalad (Heteranthera limosa); test: Test B flooded paddy test, ducksalad; conditions: Flood, 250 g ai/ha, applied to paddy water, 2-leaf stage, visual evaluation after 13 to 15 d
# Summary of the method: (§2)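 Visual injury scores run from 0 (no effect) to 100 (complete control), assigned by comparison with controls 13 to 15 d after treatment. Treatment went into floodwater standing 3 cm over the soil of pots holding 2-leaf plants.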
# kochia (Kochia scoparia) [6] = test: Test A preemergence, kochia; conditions: 0 to 100 scale, 0 is no effect, 100 is complete control
# Summary of the method: as §1
# [7] = tested on: barnyardgrass (Echinochloa crus-galli); test: Test A postemergence, barnyardgrass; conditions: 0 to 100 scale, 0 no effect, 100 complete control
# Summary of the method: as §1
# [8] = tested on: barnyardgrass (Echinochloa crus-galli); test: Test A preemergence, barnyardgrass; conditions: 0 to 100 scale, 0 is no effect, 100 is complete control
# Summary of the method: as §1
# [9] = tested on: ryegrass, Italian (Lolium multiflorum); test: Test A postemergence, Italian ryegrass; conditions: 0 to 100 scale, 0 no effect, 100 complete control
# Summary of the method: as §1
# [10] = tested on: ragweed (common ragweed, Ambrosia elatior); test: Test A preemergence, ragweed; conditions: 0 to 100 scale, 0 is no effect, 100 is complete control
# Summary of the method: as §1
# [11] = tested on: blackgrass (Alopecurus myosuroides); test: Test A postemergence, blackgrass; conditions: 0 to 100 scale, 0 no effect, 100 complete control
# Summary of the method: as §1
# corn (Zea mays) = test: Test A postemergence, corn; conditions: 0 to 100 scale, 0 no effect, 100 complete control
# Summary of the method: as §1
# kochia (Kochia scoparia) [12] = test: Test A postemergence, kochia; conditions: 0 to 100 scale, 0 no effect, 100 complete control
# Summary of the method: as §1
# [13] = tested on: barnyardgrass (Echinochloa crus-galli); test: Test B flooded paddy test, barnyardgrass; conditions: Flood, 250 g ai/ha, applied to paddy water, 2-leaf stage, visual evaluation after 13 to 15 d
# Summary of the method: as §2
# [14] = tested on: pigweed (Amaranthus retroflexus); test: Test A postemergence, pigweed; conditions: 0 to 100 scale, 0 no effect, 100 complete control
# Summary of the method: as §1
# rice (Oryza sativa) = test: Test B flooded paddy test, rice; conditions: Flood, 250 g ai/ha, applied to paddy water, 2-leaf stage, visual evaluation after 13 to 15 d
# Summary of the method: as §2
# [15] = tested on: ryegrass, Italian (Lolium multiflorum); test: Test A preemergence, Italian ryegrass; conditions: 0 to 100 scale, 0 is no effect, 100 is complete control
# Summary of the method: as §1
# [16] = tested on: sedge, umbrella (small-flower umbrella sedge, Cyperus difformis); test: Test B flooded paddy test, umbrella sedge; conditions: Flood, 250 g ai/ha, applied to paddy water, 2-leaf stage, visual evaluation after 13 to 15 d
# Summary of the method: as §2
# [17] = tested on: pigweed (Amaranthus retroflexus); test: Test A preemergence, pigweed; conditions: 0 to 100 scale, 0 is no effect, 100 is complete control
# Summary of the method: as §1
# [18] = tested on: foxtail, giant (Setaria faberii); test: Test A postemergence, giant foxtail; conditions: 0 to 100 scale, 0 no effect, 100 complete control
# Summary of the method: as §1
compound,measurement,setting,value
C[C@@H](Nc1nc(N)c(C(F)(F)F)c(C(F)(F)F)n1)c1cc2ccccc2s1 [Compound 59],"Plant response rating, Wheat",[1]; 125 g ai/ha,0
same,"Plant response rating, Wheat",[1]; 500 g ai/ha,0
same,"Plant response rating, Galium",[2]; 125 g ai/ha,20
same,"Plant response rating, Galium",[2]; 500 g ai/ha,20
same,"Plant response rating, Ragweed",[3]; 125 g ai/ha,0
same,"Plant response rating, Ragweed",[3]; 500 g ai/ha,0
same,"Foxtail, Giant plant response rating",[4]; 125 g ai/ha,0
same,"Foxtail, Giant plant response rating",[4]; 500 g ai/ha,30
same,"Plant response rating, Ducksalad (0 to 100 scale, 0 is no effect, 100 is complete control)",[5],0
same,Kochia plant response rating,kochia (Kochia scoparia) [6]; 125 g ai/ha,70
same,Kochia plant response rating,kochia (Kochia scoparia) [6]; 500 g ai/ha,80
same,"Plant response rating, Barnyardgrass",[7]; 125 g ai/ha,0
same,"Plant response rating, Barnyardgrass",[7]; 500 g ai/ha,0
same,Barnyardgrass plant response rating,[8]; 125 g ai/ha,0
same,Barnyardgrass plant response rating,[8]; 500 g ai/ha,0
same,"Plant response rating, Ryegrass, Italian",[9]; 125 g ai/ha,0
same,"Plant response rating, Ryegrass, Italian",[9]; 500 g ai/ha,0
same,Ragweed plant response rating,[10]; 125 g ai/ha,0
same,Ragweed plant response rating,[10]; 500 g ai/ha,30
same,"Plant response rating, Blackgrass",[11]; 125 g ai/ha,0
same,"Plant response rating, Blackgrass",[11]; 500 g ai/ha,0
same,"Plant response rating, Corn",corn (Zea mays); 125 g ai/ha,0
same,"Plant response rating, Corn",corn (Zea mays); 500 g ai/ha,0
same,"Plant response rating, Kochia",kochia (Kochia scoparia) [12]; 125 g ai/ha,50
same,"Plant response rating, Kochia",kochia (Kochia scoparia) [12]; 500 g ai/ha,70
same,"Plant response rating, Barnyardgrass (0 to 100 scale, 0 is no effect, 100 is complete control)",[13],0
same,"Plant response rating, Pigweed",[14]; 125 g ai/ha,60
same,"Plant response rating, Pigweed",[14]; 500 g ai/ha,80
same,"Plant response rating, Rice (0 to 100 scale, 0 is no effect, 100 is complete control)",rice (Oryza sativa),0
same,"Ryegrass, Italian plant response rating",[15]; 125 g ai/ha,0
same,"Ryegrass, Italian plant response rating",[15]; 500 g ai/ha,0
same,"Plant response rating, Sedge, Umbrella (0 to 100 scale, 0 is no effect, 100 is complete control)",[16],0
same,Pigweed plant response rating,[17]; 125 g ai/ha,30
same,Pigweed plant response rating,[17]; 500 g ai/ha,80
same,"Plant response rating, Foxtail, Giant",[18]; 125 g ai/ha,0
same,"Plant response rating, Foxtail, Giant",[18]; 500 g ai/ha,0
